EC50 data for seven compounds are collected here from US20230174608A1, “Polypeptide Derivative Having Dual Receptor Agonistic Action and Use Thereof” (TIANJIN INSTITUTE OF PHARMACEUTICAL RESEARCH CO., LTD., priority 2020, published 2023).

The target in one experiment is T1, GLP-1R (Homo sapiens, UniProt P43220).
T1 construct: expressed in transfected cells
In words: GLP-1 receptor-mediated cAMP production in vitro. The experiment is classed as cell-based. Conditions: HEK293 cell line stably expressing GLP-1R. Here is the method: (§1) HEK293 cell line stably expressing GLP-1R or GCGR was used for screening GLP-1R and GCGR agonist.
(§2) Preparation of test sample: each compound was prepared into 100 μM stock solution, and then gradually diluted to working concentrations of 1 μM, 100 nM, 10 nM, 1 nM, 10^−1 nM, 10^−2 nM, 10^−3 nM, and H2O.
(§3) 1) Each compound to be tested was mixed with a serum-free medium (containing 0.1% BSA and 0.5 mM IBMX) to obtain a solution at a concentration 2 times the working concentration.
(§4) 2) The cells were digested, suspended in a serum-free medium (containing 0.5 mM IBMX), counted, and placed in a 384-well plate at a density of 1,000 cells/5 μL/well, then 5 μL of the testing compound was added, and the plate was placed in dark for reaction for 30 min.
(§5) 3) After the reaction was completed, a substrate for detecting cAMP was added, and the plate was placed in dark for reaction at the room temperature for 60 min.
(§6) 4) After the reaction was completed, the plate was placed on the Envision2104 multifunctional microplate reader for detection, and the ratio of optical density (OD) values at 665 nm and 615 nm were read out.

A further experiment deals with T2, GCGR (Homo sapiens, UniProt P47871).
T2 construct: expressed in transfected cells
T2 sequence (P47871 26-477, species assumed): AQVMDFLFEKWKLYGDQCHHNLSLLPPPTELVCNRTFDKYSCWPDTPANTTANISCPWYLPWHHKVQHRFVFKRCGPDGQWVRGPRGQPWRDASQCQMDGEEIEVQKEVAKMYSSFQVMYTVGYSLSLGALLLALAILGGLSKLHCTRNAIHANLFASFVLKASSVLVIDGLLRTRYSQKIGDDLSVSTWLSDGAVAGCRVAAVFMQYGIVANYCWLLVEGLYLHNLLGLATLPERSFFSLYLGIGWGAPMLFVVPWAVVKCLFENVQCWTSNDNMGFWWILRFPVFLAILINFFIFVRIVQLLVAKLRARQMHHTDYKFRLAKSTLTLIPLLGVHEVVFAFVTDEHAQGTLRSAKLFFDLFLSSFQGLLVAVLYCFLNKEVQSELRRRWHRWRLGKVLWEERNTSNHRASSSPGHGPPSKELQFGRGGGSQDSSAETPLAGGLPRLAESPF
The experiment can be described thus: GC receptor-mediated cAMP production in vitro. It is filed as cell-based. As to conditions: HEK293 cell line stably expressing GCGR. Here is the method:
as §1, §2, §3, §4, §5, §6

*1 amine or outer side, *2 acyl side, *3 side chain or, on linkers, in order; H or OH if unused. Where a SMILES comes first, the peptide text is derived from it. Side-chain parts run from the residue outwards. [ ]: non-standard residue; d: D form. The star is where a group is joined. C18 diacid = O=C(O)CCCCCCCCCCCCCCCCC(=O)*; γGlu = O=C(O)[C@H](CCC(=O)[*:2])N[*:1]; Palmitoyl = CCCCCCCCCCCCCCCC(=O)*; AEEA = NCCOCCOCC(=O)O; Aib = CC(C)(N)C(=O)O

T1 sequence (P43220 24-463, species assumed): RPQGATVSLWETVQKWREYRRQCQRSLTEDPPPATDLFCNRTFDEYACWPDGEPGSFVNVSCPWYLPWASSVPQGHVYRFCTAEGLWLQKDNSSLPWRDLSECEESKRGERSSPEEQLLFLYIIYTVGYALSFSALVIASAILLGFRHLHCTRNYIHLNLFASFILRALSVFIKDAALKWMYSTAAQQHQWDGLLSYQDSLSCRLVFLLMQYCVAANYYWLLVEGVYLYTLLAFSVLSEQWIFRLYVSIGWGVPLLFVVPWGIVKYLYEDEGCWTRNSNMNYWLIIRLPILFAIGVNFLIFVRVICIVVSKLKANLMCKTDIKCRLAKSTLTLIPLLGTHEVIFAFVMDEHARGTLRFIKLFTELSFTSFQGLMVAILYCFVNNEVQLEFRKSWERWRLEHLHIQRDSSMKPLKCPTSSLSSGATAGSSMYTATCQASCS

Consider `CCCCCCCCCCCCCCCC(=O)N[C@@H](CCC(=O)NCCCC[C@H](NC(=O)[C@H](C)NC(=O)[C@H](C)NC(=O)[C@H](CCCNC(=N)N)NC(=O)[C@H](CCC(=O)O)NC(=O)[C@H](CC(=O)O)NC(=O)[C@H](CC(C)C)NC(=O)[C@H](Cc1ccc(O)cc1)NC(=O)[C@H](CCCCN)NC(=O)[C@H](CO)NC(=O)[C@H](Cc1ccc(O)cc1)NC(=O)[C@H](CC(=O)O)NC(=O)[C@H](CO)NC(=O)[C@@H](NC(=O)[C@H](Cc1ccccc1)NC(=O)[C@@H](NC(=O)CNC(=O)[C@H](CCC(N)=O)NC(=O)[C@H](CO)NC(=O)[C@@H](N)Cc1c[nH]cn1)[C@@H](C)O)[C@@H](C)O)C(=O)N[C@@H](CCC(=O)O)C(=O)N[C@@H](Cc1ccccc1)C(=O)N[C@H](C(=O)N[C@@H](C)C(=O)N[C@@H](Cc1c[nH]c2ccccc12)C(=O)N[C@@H](CC(C)C)C(=O)N[C@@H](CCC(=O)O)C(=O)N[C@@H](C)C(=O)NCC(=O)NCC(N)=O)[C@@H](C)CC)C(=O)O` [dgc001] (HELM PEPTIDE1{H.S.Q.G.T.F.T.S.D.Y.S.K.Y.L.D.E.R.A.A.K.E.F.I.A.W.L.E.A.G.G.[am]}|PEPTIDE2{[CCCCCCCCCCCCCCCC(=O)[*:2]].[gGlu]}$PEPTIDE1,PEPTIDE2,20:R3-2:R2$$$V2.0; N-terminus assumed), for which the EC50 turned out to be 1.13 nM on GLP-1R and 0.806 nM on GCGR.

As for `CC[C@H](C)[C@H](NC(=O)[C@H](Cc1ccccc1)NC(=O)[C@H](CCC(=O)O)NC(=O)[C@H](CCCCNC(=O)COCCOCCNC(=O)COCCOCCNC(=O)CC[C@H](NC(=O)CCCCCCCCCCCCCCCCC(=O)O)C(=O)O)NC(=O)[C@H](C)NC(=O)[C@H](C)NC(=O)[C@H](CCCNC(=N)N)NC(=O)[C@H](CCC(=O)O)NC(=O)[C@H](CCC(=O)O)NC(=O)[C@H](CC(C)C)NC(=O)[C@H](Cc1ccc(O)cc1)NC(=O)[C@H](CCCCN)NC(=O)[C@H](CO)NC(=O)[C@H](Cc1ccc(O)cc1)NC(=O)[C@H](CC(=O)O)NC(=O)[C@H](CO)NC(=O)[C@@H](NC(=O)[C@H](Cc1ccccc1)NC(=O)[C@@H](NC(=O)CNC(=O)[C@H](CCC(N)=O)NC(=O)C(C)(C)NC(=O)[C@@H](N)Cc1c[nH]cn1)[C@@H](C)O)[C@@H](C)O)C(=O)N[C@@H](C)C(=O)N[C@@H](Cc1c[nH]c2ccccc12)C(=O)N[C@@H](CC(C)C)C(=O)N[C@@H](CCC(=O)O)C(=O)N[C@@H](C)C(=O)NCC(=O)NCC(N)=O` [dgc006] (H-H[Aib]QGTFTSDYSKYLEERAAK([AEEA-AEEA-γGlu-C18 diacid])EFIAWLEAGG-NH2; N-terminus assumed), the EC50 worked out at 0.472 nM on GLP-1R and 6.41 nM on GCGR.

For `CCCCCCCCCCCCCCCC(=O)N[C@@H](CCC(=O)NCCCC[C@H](NC(=O)[C@H](C)NC(=O)[C@H](C)NC(=O)[C@H](CCCNC(=N)N)NC(=O)[C@H](CCC(=O)O)NC(=O)[C@H](CC(=O)O)NC(=O)[C@H](CC(C)C)NC(=O)[C@H](Cc1ccc(O)cc1)NC(=O)[C@H](CCCCN)NC(=O)[C@H](CO)NC(=O)[C@H](Cc1ccc(O)cc1)NC(=O)[C@H](CC(=O)O)NC(=O)[C@H](CO)NC(=O)[C@@H](NC(=O)[C@H](Cc1ccccc1)NC(=O)[C@@H](NC(=O)CNC(=O)[C@H](CCC(N)=O)NC(=O)C(C)(C)NC(=O)[C@@H](N)Cc1c[nH]cn1)[C@@H](C)O)[C@@H](C)O)C(=O)N[C@@H](CCC(=O)O)C(=O)N[C@@H](Cc1ccccc1)C(=O)N[C@H](C(=O)N[C@@H](C)C(=O)N[C@@H](Cc1c[nH]c2ccccc12)C(=O)N[C@@H](CC(C)C)C(=O)N[C@@H](CCC(=O)O)C(=O)N[C@@H](CO)C(=O)NCC(=O)NCC(N)=O)[C@@H](C)CC)C(=O)O` [dgc007] (HELM PEPTIDE1{H.[Aib].Q.G.T.F.T.S.D.Y.S.K.Y.L.D.E.R.A.A.K.E.F.I.A.W.L.E.S.G.G.[am]}|PEPTIDE2{[CCCCCCCCCCCCCCCC(=O)[*:2]].[gGlu]}$PEPTIDE1,PEPTIDE2,20:R3-2:R2$$$V2.0; N-terminus assumed), the EC50 at GLP-1R was 0.28 nM; at GCGR, 0.971 nM.

With `CCCCCCCCCCCCCCCC(=O)N[C@@H](CCC(=O)NCCOCCOCC(=O)NCCOCCOCC(=O)NCCCC[C@H](NC(=O)[C@H](C)NC(=O)[C@H](C)NC(=O)[C@H](CCCNC(=N)N)NC(=O)[C@H](CCC(=O)O)NC(=O)[C@H](CCC(=O)O)NC(=O)[C@H](CC(C)C)NC(=O)[C@H](Cc1ccc(O)cc1)NC(=O)[C@H](CCCCN)NC(=O)[C@H](CO)NC(=O)[C@H](Cc1ccc(O)cc1)NC(=O)[C@H](CC(=O)O)NC(=O)[C@H](CO)NC(=O)[C@@H](NC(=O)[C@H](Cc1ccccc1)NC(=O)[C@@H](NC(=O)CNC(=O)[C@H](CCC(N)=O)NC(=O)C(C)(C)NC(=O)[C@@H](N)Cc1c[nH]cn1)[C@@H](C)O)[C@@H](C)O)C(=O)N[C@@H](CCC(=O)O)C(=O)N[C@@H](Cc1ccccc1)C(=O)N[C@H](C(=O)N[C@@H](C)C(=O)N[C@@H](Cc1c[nH]c2ccccc12)C(=O)N[C@@H](CC(C)C)C(=O)N[C@@H](CCC(=O)O)C(=O)N[C@@H](CO)C(=O)NCC(=O)NCC(N)=O)[C@@H](C)CC)C(=O)O` [dgc009] (H-H[Aib]QGTFTSDYSKYLEERAAK([AEEA-AEEA-γGlu-Palmitoyl])EFIAWLESGG-NH2; N-terminus assumed), the results for the EC50 on GLP-1R and on GCGR were 0.092 nM and 8.22 nM, respectively.

As for `CCCCCCCCCCCCCCCC(=O)N[C@@H](CCC(=O)NCCOCCOCC(=O)NCCOCCOCC(=O)NCCCC[C@H](NC(=O)[C@H](C)NC(=O)[C@H](C)NC(=O)[C@H](CCCNC(=N)N)NC(=O)[C@H](CCC(=O)O)NC(=O)[C@H](CCC(=O)O)NC(=O)[C@H](CC(C)C)NC(=O)[C@H](Cc1ccc(O)cc1)NC(=O)[C@H](CCCCN)NC(=O)[C@H](CO)NC(=O)[C@H](Cc1ccc(O)cc1)NC(=O)[C@H](CC(=O)O)NC(=O)[C@H](CO)NC(=O)[C@@H](NC(=O)[C@H](Cc1ccccc1)NC(=O)[C@@H](NC(=O)CNC(=O)[C@H](CCC(N)=O)NC(=O)C(C)(C)NC(=O)[C@@H](N)Cc1c[nH]cn1)[C@@H](C)O)[C@@H](C)O)C(=O)N[C@@H](CCC(=O)O)C(=O)N[C@@H](Cc1ccccc1)C(=O)N[C@H](C(=O)N[C@@H](C)C(=O)N[C@@H](Cc1c[nH]c2ccccc12)C(=O)N[C@@H](CC(C)C)C(=O)N[C@@H](CCC(=O)O)C(=O)N[C@@H](C)C(=O)NCC(=O)NCC(N)=O)[C@@H](C)CC)C(=O)O` [dgc011] (H-H[Aib]QGTFTSDYSKYLEERAAK([AEEA-AEEA-γGlu-Palmitoyl])EFIAWLEAGG-NH2; N-terminus assumed), the EC50 on GLP-1R is 0.955 nM; at GCGR, 4.13 nM.

Consider `CC(C)C[C@H](NC(=O)[C@H](Cc1c[nH]c2ccccc12)NC(=O)[C@H](C)NC(=O)[C@@H](NC(=O)[C@H](Cc1ccccc1)NC(=O)[C@H](CCC(=O)O)NC(=O)[C@H](CCCCNC(=O)COCCOCCNC(=O)COCCOCCNC(=O)CC[C@H](NC(=O)CCCCCCCCCCCCCCCCC(=O)O)C(=O)O)NC(=O)[C@H](C)NC(=O)[C@H](C)NC(=O)[C@H](CCCNC(=N)N)NC(=O)[C@H](CCC(=O)O)NC(=O)[C@H](CCC(=O)O)NC(=O)[C@H](CC(C)C)NC(=O)[C@H](Cc1ccc(O)cc1)NC(=O)[C@H](CCCCN)NC(=O)[C@H](CO)NC(=O)[C@H](Cc1ccc(O)cc1)NC(=O)[C@H](CC(=O)O)NC(=O)[C@H](CO)NC(=O)[C@@H](NC(=O)[C@H](Cc1ccccc1)NC(=O)[C@@H](NC(=O)CNC(=O)[C@H](CCC(N)=O)NC(=O)[C@@H](CO)NC(=O)[C@@H](N)Cc1c[nH]cn1)[C@@H](C)O)[C@@H](C)O)C(C)C)C(=O)N[C@@H](CCC(=O)O)C(=O)NCC(=O)NCC(N)=O` [dgc012] (H-H[dS]QGTFTSDYSKYLEERAAK([AEEA-AEEA-γGlu-C18 diacid])EFVAWLEGG-NH2; N-terminus assumed), for which the EC50 at GLP-1R was 0.044 nM; on GCGR, 2.17 nM.

With `CCCCCCCCCCCCCCCC(=O)N[C@@H](CCC(=O)NCCCC[C@H](NC(=O)[C@H](C)NC(=O)[C@H](C)NC(=O)[C@H](CCCNC(=N)N)NC(=O)[C@H](CCC(=O)O)NC(=O)[C@H](CC(=O)O)NC(=O)[C@H](CC(C)C)NC(=O)[C@H](Cc1ccc(O)cc1)NC(=O)[C@H](CCCCN)NC(=O)[C@H](CO)NC(=O)[C@H](Cc1ccc(O)cc1)NC(=O)[C@H](CC(=O)O)NC(=O)[C@H](CO)NC(=O)[C@@H](NC(=O)[C@H](Cc1ccccc1)NC(=O)[C@@H](NC(=O)CNC(=O)[C@H](CCC(N)=O)NC(=O)C(C)(C)NC(=O)[C@@H](N)Cc1c[nH]cn1)[C@@H](C)O)[C@@H](C)O)C(=O)N[C@@H](CCC(=O)O)C(=O)N[C@@H](Cc1ccccc1)C(=O)N[C@H](C(=O)N[C@@H](C)C(=O)N[C@@H](Cc1c[nH]c2ccccc12)C(=O)N[C@@H](CC(C)C)C(=O)N[C@@H](CCC(=O)O)C(=O)NCC(=O)NCC(N)=O)[C@@H](C)CC)C(=O)O` [dgc014] (HELM PEPTIDE1{H.[Aib].Q.G.T.F.T.S.D.Y.S.K.Y.L.D.E.R.A.A.K.E.F.I.A.W.L.E.G.G.[am]}|PEPTIDE2{[CCCCCCCCCCCCCCCC(=O)[*:2]].[gGlu]}$PEPTIDE1,PEPTIDE2,20:R3-2:R2$$$V2.0; N-terminus assumed), the EC50 was determined as 0.516 nM on GLP-1R and 0.821 nM on GCGR.
